Where two headings read alike, the source gives them in different places.
Tests used:
[1] = test system: luciferase expression in the liver; assay: In vivo luciferase mRNA expression rodent model (LNP, liver luciferase); design: species or system C57BL/6 mice; conditions: tail vein, liver 4 hours; for Liver Luc @ 0.3 mg/kg (ng luc/g liver): 0.3 mg mRNA/kg; for Liver Luc @ 1.0 mg/kg (ng luc/g liver): 1.0 mg mRNA/kg
Procedure: Cationic lipid (MC3), DSPC, cholesterol and PEG-lipid were solubilized in ethanol at a molar ratio of 50:10:38.5:1.5. Lipid nanoparticles (LNP) were prepared at a total lipid to mRNA weight ratio of approximately 10:1 to 30:1. Briefly, the mRNA was diluted to 0.2 mg/mL in 10 to 50 mM citrate buffer, pH 4. Syringe pumps were used to mix the ethanolic lipid solution with the mRNA aqueous solution at a ratio of about 1:5 to 1:3 (vol/vol) with total flow rates above 15 ml/min. The ethanol was then removed and the external buffer replaced with PBS by dialysis. Finally, the lipid nanoparticles were filtered through a 0.2 μm pore sterile filter. Lipid nanoparticle particle size was 70-90 nm diameter as determined by quasi-elastic light scattering using a Nicomp 370 submicron particle sizer (Santa Barbara, Calif.).
Studies were performed in 6-8 week old female C57BL/6 mice (Charles River) according to guidelines established by an institutional animal care committee (ACC) and the Canadian Council on Animal Care (CCAC). Varying doses of mRNA-lipid nanoparticle were systemically administered by tail vein injection and animals euthanized at specific time points (1, 2, 4, 8 and 24 hrs) post-administration. Liver and spleen were collected in pre-weighted tubes, weights determined, immediately snap frozen in liquid nitrogen and stored at −80° C. until processing for analysis.
For liver, approximately 50 mg was dissected for analyses in a 2 mL FastPrep tubes (MP Biomedicals, Solon Ohio). ¼″ ceramic sphere (MP Biomedicals) was added to each tube and 500 μL of Glo Lysis Buffer—GLB (Promega, Madison Wis.) equilibrated to room temperature was added to liver tissue. Liver tissues were homogenized with the FastPrep24 instrument (MP Biomedicals) at 2×6.0 m/s for 15 seconds. Homogenate was incubated at room temperature for 5 minutes prior to a 1:4 dilution in GLB and assessed using SteadyGlo Luciferase assay system (Promega). Specifically, 50 μL of diluted tissue homogenate was reacted with 50 μL of SteadyGlo substrate, shaken for 10 seconds followed by 5 minute incubation and then quantitated using a CentroXS^3 LB 960 luminometer (Berthold Technologies, Germany). The amount of protein assayed was determined by using the BCA protein assay kit (Pierce, Rockford Ill.). Relative luminescence units (RLU) were then normalized to total ug protein assayed. To convert RLU to ng luciferase a standard curve was generated with QuantiLum Recombinant Luciferase (Promega). Based in the data provided in FIG. 1, the four-hour time point was chosen for efficacy evaluation of the lipid formulations (see EXAMPLE 48).
The FLuc mRNA (L-6107) from Trilink Biotechnologies will express a luciferase protein, originally isolated from the firefly, Photinus pyralis. FLuc is commonly used in mammalian cell culture to measure both gene expression and cell viability. It emits bioluminescence in the presence of the substrate, luciferin. This capped and polyadenylated mRNA is fully substituted with 5-methylcytidine and pseudouridine.
The cationic lipids shown in Table 2 have previously been tested with nucleic acids. For comparative purposes, these lipids were also used to formulate lipid nanoparticles containing the FLuc mRNA (L-6107) using an in line mixing method, as described in EXAMPLE 47 and in PCT/US10/22614, which is hereby incorporated by reference in its entirety. Lipid nanoparticles were formulated using the following molar ratio: 50% Cationic lipid/10% distearoylphosphatidylcholine (DSPC)/38.5% Cholesterol/1.5% PEG lipid (“PEG-DMG”, i.e., (1-(monomethoxy-polyethyleneglycol)-2,3-dimyristoylglycerol, with an average PEG molecular weight of 2000). Relative activity was determined by measuring luciferase expression in the liver 4 hours following administration via tail vein injection as described in EXAMPLE 47. The activity was compared at a dose of 0.3 and 1.0 mg mRNA/kg and expressed as ng luciferase/g liver measured 4 hours after administration, as described in EXAMPLE 47. […]

[2] = pKa of formulated cationic lipids in lipid nanoparticles (TNS fluorescence assay); assay type: physicochemical; conditions: read-out: pKa
Procedure: As described elsewhere, the pKa of formulated cationic lipids is correlated with the effectiveness of LNPs for delivery of nucleic acids (see Jayaraman et al, Angewandte Chemie, International Edition (2012), 51(34), 8529-8533; Semple et al, Nature Biotechnology 28, 172-176 (2010)). The preferred range of pKa is ˜5 to ˜7. […] Lipid nanoparticles comprising of cationic lipid/DSPC/cholesterol/PEG-lipid (50/10/38.5/1.5 mol %) in PBS at a concentration of 0.4 mM total lipid are prepared using the in-line process as described in EXAMPLE 47. TNS was prepared as a 100 μM stock solution in distilled water. Vesicles were diluted to 24 μM lipid in 2 mL of buffered solutions containing, 10 mM HEPES, 10 mM MES, 10 mM ammonium acetate, 130 mM NaCl, where the pH ranged from 2.5 to 11. An aliquot of the TNS solution was added to give a final concentration of 1 μM and following vortex mixing fluorescence intensity was measured at room temperature in a SLM Aminco Series 2 Luminescence Spectrophotometer using excitation and emission wavelengths of 321 nm and 445 nm. A sigmoidal best fit analysis was applied to the fluorescence data and the pKa was measured as the pH giving rise to half-maximal fluorescence intensity (see FIG. 2).

[3] = Table 3, LNP with 1.5% PEG-DMA (42-6), FLuc mRNA
[4] = Table 3, in LNP cationic lipid/DSPC/cholesterol/PEG-lipid 50/10/38.5/1.5 mol %
[5] = Table 6, LNP with 1.5% PEG-lipid (42-6)

| Compound | Liver Luc @ 0.3 mg/kg (ng luc/g liver) [1, 3] [ng luc/g liver] | Liver Luc @ 1.0 mg/kg (ng luc/g liver) [1, 3] [ng luc/g liver] | pKa [2, 4] | Liver Luc @ 0.3 mg/kg (ng luc/g liver) [1, 5] [ng luc/g liver] | Liver Luc @ 1.0 mg/kg (ng luc/g liver) [1, 5] [ng luc/g liver] | pKa ([2]; Table 6, in LNP) | pKa ([2]; Table 5, in LNP) |
| --- | --- | --- | --- | --- | --- | --- | --- |
| CCCCC(CC)C(=O)OCCCCCCCCCCCCN(CCCCCCCCCCCCOC(=O)C(CC)CCCC)CCN(C)C (stereo not drawn) [Compound 4] | 53 ± 10 | 126 ± 102 | 6.43 | – | – | – | – |
| CCCCCCCCCCC(CCCCCCCC)COC(=O)CCCCCN(CCCCCC(=O)OCC(CCCCCCCC)CCCCCCCCCC)CCN(C)C (stereo not drawn) [Compound 27] | 724 ± 144 | 6636 ± 1230 | 6.3 | – | – | – | – |
| C/C(=C\COC(=O)CCCCCN(CCCCCC(=O)OC/C=C(\C)CCCC(C)CCCC(C)CCCC(C)C)CCN(C)C)CCCC(C)CCCC(C)CCCC(C)C (stereo not drawn) [Compound 2] | 23 ± 6 | 84 ± 24 | 5.64 | – | – | – | – |
| CCCCCCCCOC(=O)CCCCCCCCCN(CCCCCCCCCC(=O)OCCCCCCCC)CCN(C)C [Compound 13] | 16 ± 4 | 20 ± 20 | 6.51 | – | – | – | – |
| CCCCCCC(CCCC)COC(=O)CCCCCCCN(CCCCCCCC(=O)OCC(CCCC)CCCCCC)CCN(C)C (stereo not drawn) [Compound 20] | 301 ± 155 | 501 ± 96 | 6.44 | – | – | – | – |
| CCCCCCCCCCCCC(CCCCCCCCCC)C(=O)OCCCCCCCCCN(CCCCCCCCCOC(=O)C(CCCCCCCCCC)CCCCCCCCCCCC)CCN(C)C (stereo not drawn) [Compound 41] | 63 ± 27 | 799 ± 619 | 5.91 | – | – | – | – |
| CCCCC/C=C\C/C=C\CCCCCCCCN(CCCCCCCC/C=C\C/C=C\CCCCC)CCCCN(C)C [C, reference compound] | – | – | – | 2 ± 0.5 | 7 ± 2 | 7.32 | – |
| CCCCCCC(CCCC)C(=O)OCCCCCCCCCN(CCCCCCCCCOC(=O)C(CCCC)CCCCCC)CCN(C)C (stereo not drawn) [Compound 38] | 977 ± 336 | 7135 ± 1020 | 6.24 | – | – | – | – |
| CCCCCCCCCCC(C)OC(=O)CCCCCCCCCN(CCCCCCCCCC(=O)OC(C)CCCCCCCCCC)CCN(C)C (stereo not drawn) [Compound 24] | 1094 ± 180 | 6928 ± 1015 | 6.28 | – | – | – | – |
| CCCCCCCCC(CCCCCC)COC(=O)CCCCCCCN(CCCCCCCC(=O)OCC(CCCCCC)CCCCCCCC)CCN(C)C (stereo not drawn) [Compound 23] | 1109 ± 209 | 4568 ± 762 | 6.24 | – | – | – | – |
| CCCCC/C=C\C/C=C\CCCCCCCCN(CCCCCCCC/C=C\C/C=C\CCCCC)CCN(C)C [A, reference compound] | – | – | – | 77 ± 40 | 203 ± 122 | – | 6.26 |
| CCCCCCC(CCCCCC)OC(=O)CCCCCCCCCN(CCCCCCCCCC(=O)OC(CCCCCC)CCCCCC)CCN(C)C [Compound 29] | 1303 ± 445 | 9750 ± 3519 | 6.22 | – | – | – | – |
| CCCCCCCCC(CCCCCC)COC(=O)CCCCCN(CCCCCC(=O)OCC(CCCCCC)CCCCCCCC)CCN1CCCC1 (stereo not drawn) [Compound 32] | 626 ± 299 | 12266 ± 192 | 6.47 | – | – | – | – |
| CCCCCCCCCCC(CCCCCCCC)COC(=O)CCCCCCCN(CCCCCCCC(=O)OCC(CCCCCCCC)CCCCCCCCCC)CCN(C)C (stereo not drawn) [Compound 28] | 522 ± 86 | 4582 ± 1291 | 6.2 | – | – | – | – |
| CCCCC/C=C\C/C=C\CCCCCCCCOC(=O)CCCCCN(CCCCCC(=O)OCCCCCCCC/C=C\C/C=C\CCCCC)CCN(C)C [Compound 26] | 30 ± 5 | 55 ± 0.8 | 6.89 | – | – | – | – |
| CCCCC/C=C\C/C=C\CCCCCCCCN(CCCCCCCC/C=C\C/C=C\CCCCC)CCCN(C)C [B, reference compound] | – | – | – | 3 ± 0.8 | 12 ± 4 | 6.68 | – |
| CCCCCCCCCCCOC(=O)CCCCCCCCCN(CCCCCCCCCC(=O)OCCCCCCCCCCC)CCN(C)C [Compound 15] | 66 ± 32 | 243 ± 71 | 6.3 | – | – | – | – |
| CCCCCCCCCCC(CCCCCCCC)C(=O)OCCCCCCCCCN(CCCCCCCCCOC(=O)C(CCCCCCCC)CCCCCCCCCC)CCN(C)C (stereo not drawn) [Compound 40] | 236 ± 71 | 1704 ± 571 | 6.38 | – | – | – | – |
| C/C(=C\COC(=O)CN(CCN(C)C)CC(=O)OC/C=C(\C)CCCC(C)CCCC(C)CCCC(C)C)CCCC(C)CCCC(C)CCCC(C)C (stereo not drawn) [Compound 3] | 1.5 ± 0.6 | 0.32 ± 0.1 | 7.15 | – | – | – | – |
| CCCCCCCCCCC(CCCCCCCC)COC(=O)CCCCCN(CCCCCC(=O)OCC(CCCCCCCC)CCCCCCCCCC)CCN1CCCC1 (stereo not drawn) [Compound 31] | 344 ± 160 | 4103 ± 1073 | 6.33 | – | – | – | – |
| CCCCCCCCC(CCCCCC)COC(=O)CCCCCN(CCCCCC(=O)OCC(CCCCCC)CCCCCCCC)CCN(C)CC (stereo not drawn) [Compound 33] | 711 ± 272 | 4448 ± 512 | 6.27 | – | – | – | – |
| CCCCCCCCCCCCC(CCCCCCCCCC)C(=O)OCCCCCCN(CCCCCCOC(=O)C(CCCCCCCCCC)CCCCCCCCCCCC)CCN(C)C (stereo not drawn) [Compound 39] | 36 ± 13 | 326 ± 81 | 5.82 | – | – | – | – |
| CCCCCCCCC(CCCCCC)COC(=O)CCCCCCCCCN(CCCCCCCCCC(=O)OCC(CCCCCC)CCCCCCCC)CCN(C)C (stereo not drawn) [Compound 25] | 901 ± 173 | 6223 ± 1714 | 6.2 | – | – | – | – |

From US10723692B2, “Lipids and lipid nanoparticle formulations for delivery of nucleic acids” (Acuitas Therapeutics, Inc., priority 2014, dated 2020)
